Literature values as cited in PMC6801819, “Exogenous Iron Increases Fasciocidal Activity and Hepatocellular Toxicity of the Synthetic Endoperoxides OZ78 and MT04” (International Journal of Molecular Sciences, 2019).
Where two headings read alike, the source gives them in different places.

Test system: mice
Settings: cited from earlier work

## C[C@H]1[C@H](OC(=O)CCC(=O)O)O[C@@H]2O[C@@]3(C)CC[C@H]4[C@H](C)CC[C@@H]1[C@@]24OO3 [AS, artesunate, reference compound]
Single intramuscular administration
  LD50: 475 mg/kg
Single intravenous administration
  LD50: 520 mg/kg
